Patent US10292980B2, “GAPDH cascade inhibitor compounds and methods of use and treatment of stress induced disorders including mental illness” (THE JOHNS HOPKINS UNIVERSITY, priority 2012, dated 2019)

Key:
[1] = test system: TAC hearts; assay: TAC chronic pressure-overload cardiac hypertrophy model, treatment from time of constriction; assay type: in vivo, mouse
Protocol: Cardiac animal models: All protocols were approved by Animal Care and Use Committee of the Johns Hopkins University. TAC was performed in C57/BL6 mice (Jackson Laboratory) as previously described in (Nat. Med., 11, 214-222 (2005), J. Clin. Invest., 119, 408-420 (2009), J. Am. Coll. Cardiol., 56, 2021-2030 (2010)). Physiological analysis, histological analysis: Echocardiography and pressure-volume loop studies were performed as described previously (Takimoto et al., Nat. Med., 11, 214-222 (2005)). 10% formalin fixed heart samples were embedded in paraffin, sectioned and stained for myocyte size (WGA staining) and fibrosis (Masson Trichrome staining) as described previously (Zhang et al., J. Am. Coll. Cardiol., 56, 2021-2030 (2010)). Isolated adult cardiac myocyte or rat neonatal cardiac myocyte was fixed with 50% methanol/50% acetone and stained with antibodies against GAPDH (Millipore), sulphonated GAPDH or HA as previously described. HAT activity assay, MEF2 activity assay, MAO activity assay, GAPDH assay: p300 HAT activity was measured using commercially available kit (Biovision), using immunoprecipitation with p300 antibody (Circulation 118, 934-946 (2008)). MEF2 activity was measured using luciferase reporter assay (Panomics). MAO activity assay was measured using commercially available kit (Peninsula Laboratory). GAPDH activity was measured as previously described in (Nat. Cell Biol., 7, 665-674 (2005)). PUMA mRNA expression was determined by real time RT-PCR using SYBR Green fluorescence on a LightCycler instrument (Roche Applied Science). Expression of the gene of interest was divided by the housekeeping gene glyceraldehyde-3-phosphate dehydrogenase (GAPDH) and presented as fold induction of control. Protein and RNA analysis: Total RNA was isolated from cells or left ventricular myocardium with Trizol (Molecular Research Center, Inc, Cincinnati, Ohio) and analyzed by real-time polymerase chain reaction (PCR) with TaqMan probes (Applied Biosystems, Foster City, Calif.). Results were normalized to GAPDH or 18S RNA. Cell lysates or nuclear extracts were obtained from cultured myocytes or ventricular tissue, resolved by SDS-polyacrylamide gel electrophoresis, subjected to immunoblotting and imaged by chemiluminescence as previously described. To understand the pathology underlying heart hypertrophy, chronic pressure overload induced by transverse aorta constriction (TAC) is used as an established experimental animal model. Heart hypertrophy is evident at 7 to 10 days after the constriction, which leads to irreversible functional defects in 9 weeks. In the present study, the TAC model was employed and identified GAPDH as a key conveyer of the pathological stress signal to nuclear p300, resulting in disruption of critical homeostasis in vivo. In the present invention, the significance of the nuclear GAPDH cascade in vivo has been shown. With this understanding there is also provided novel therapeutic methods of treatment of stress induced disorders, including, for example, cardiac hypertrophy, which are urgent and very important medical needs.

[2] = test system: p300 HAT / MEF2; assay: p300 acetylation and MEF2 luciferase reporter activity in cardiac myocytes treated with ET1; assay type: cell-based, rat
Protocol: (§1) Rat neonatal cardiac myocyte culture: Rat neonatal cardiac myocytes (RNCM) were isolated from 1-2-day-old Sprague-Dawley rats, and cultured cells stimulated with 0.05 μM Endothelin-1, with or without 1 nM RR compound for 48 hours. Protein synthesis was assessed by [^3H]leucine incorporation. Adenoviral transfection of wild-type GAPDH and K227A mutant GAPDH was performed at 10-30 moi as previously described.
(§2) HAT activity assay, MEF2 activity assay, MAO activity assay, GAPDH assay: p300 HAT activity was measured using commercially available kit (Biovision), using immunoprecipitation with p300 antibody (Circulation 118, 934-946 (2008)). MEF2 activity was measured using luciferase reporter assay (Panomics). MAO activity assay was measured using commercially available kit (Peninsula Laboratory). GAPDH activity was measured as previously described in (Nat. Cell Biol., 7, 665-674 (2005)). PUMA mRNA expression was determined by real time RT-PCR using SYBR Green fluorescence on a LightCycler instrument (Roche Applied Science). Expression of the gene of interest was divided by the housekeeping gene glyceraldehyde-3-phosphate dehydrogenase (GAPDH) and presented as fold induction of control.
(§3) Augmented p300 activity reportedly leads to cardiac hypertrophic response via activation of myocyte enhancer factor 2 (MEF2), a master transcriptional factor of mal-adaptive cardiac hypertrophy. Thus, acylation of p300, and activity of MEF2 was tested, together with several outcome measures for hypertrophy response. In cardiac myocytes treated with ET1, augmentation of p300 acylation (reflecting p300 HAT activity), an augmented activity of MEF2, and increases in cell surface area, protein synthesis assayed by ^3H-leucine uptake, and B-type natriuretic peptide (BNP) expression were observed (FIGS. 5D, E).

[3] = test system: TAC hearts; assay: TAC model, delayed RR treatment of pre-existing cardiac hypertrophy; assay type: in vivo, mouse
Protocol: Cardiac animal models: All protocols were approved by Animal Care and Use Committee of the Johns Hopkins University. TAC was performed in C57/BL6 mice (Jackson Laboratory) as previously described in (Nat. Med., 11, 214-222 (2005), J. Clin. Invest., 119, 408-420 (2009), J. Am. Coll. Cardiol., 56, 2021-2030 (2010)). Physiological analysis, histological analysis: Echocardiography and pressure-volume loop studies were performed as described previously (Takimoto et al., Nat. Med., 11, 214-222 (2005)). 10% formalin fixed heart samples were embedded in paraffin, sectioned and stained for myocyte size (WGA staining) and fibrosis (Masson Trichrome staining) as described previously (Zhang et al., J. Am. Coll. Cardiol., 56, 2021-2030 (2010)). Isolated adult cardiac myocyte or rat neonatal cardiac myocyte was fixed with 50% methanol/50% acetone and stained with antibodies against GAPDH (Millipore), sulphonated GAPDH or HA as previously described. Protein and RNA analysis: Total RNA was isolated from cells or left ventricular myocardium with Trizol (Molecular Research Center, Inc, Cincinnati, Ohio) and analyzed by real-time polymerase chain reaction (PCR) with TaqMan probes (Applied Biosystems, Foster City, Calif.). Results were normalized to GAPDH or 18S RNA. Cell lysates or nuclear extracts were obtained from cultured myocytes or ventricular tissue, resolved by SDS-polyacrylamide gel electrophoresis, subjected to immunoblotting and imaged by chemiluminescence as previously described. In most clinical settings, medication and treatment starts only after pathological changes occur at least to some extent.

[4] = test system: DN-DISC1 mice; assay: three chamber social novelty test in DN-DISC1 mice; assay type: in vivo, mouse
Description: DN-DISC1 mice express a putative dominant-negative C-terminal truncated DISC1 under expression control of the α CaMKII promoter. Homozygous DN-DISC1 mice were created by systematic cross-breeding of heterozygotes followed by interbreeding of homozygotes at the Johns Hopkins School of Medicine. In the current studies only homozygous males were used. At 3 to 6 months of age, mice were transferred to the Neurogenetics and Behavior Center, Johns Hopkins University, for behavioral testing. They were housed three or four to a cage under a 12 hour light/dark cycle (lights on at 7:00 A.M to 7:00 P.M) and weighed between 25 and 35 grams prior to food deprivation.
Measurement of Social Novelty Test: Wt and DN-DISC1 mice were treated with RR compound or control starting at postnatal day 35 (0.25 mg/kg, i.p./day) and continuing throughout the three-chamber social interaction test in adulthood as described in Johnson et al., supra.
The inventors treated DN-DISC1 mice with RR starting at postnatal day 35 (0.25 mg/kg, i.p./day) and continuing throughout the three-chamber social interaction test in adulthood.

[5] = biological target: GAPDH-Siah1 binding (Homo sapiens, UniProt P04406); assay: in vitro binding of purified recombinant GAPDH and GST-Siah1 (GST-agarose pull down, western blot); settings: GAPDH pre-incubated with compound
Protocol: (§4) FIG. 4A-4D depict a deprenyl derivative compound of the present invention that blocks GAPDH-Siah1 binding. […] FIG. 4B is a graph depicting inhibition of GAPDH-Siah1 binding by the RR compound in vitro. GAPDH was pre-incubated with the RR compound, then GST-Siah1 was added and binding was assessed by GST-agarose pull down followed by western blotting. The graph represents quantification results of the blots from 6 experiments. FIG. 4C is a pair of graphs depicting in vitro MAO activity. FIG. 4D is a bar graph showing glycolytic activity in cultured rat neonatal cardiac cells exposed to 1 nM RR for 48 hours *p<0.05.
To test whether TAC elicits nuclear translocation of GAPDH and activates p300, a specific tool to intervene GAPDH nuclear translocation is needed. Several structural analogues of deprenyl that blocked GAPDH-Siah1 binding and the nuclear GAPDH cascade were previously screened (data not shown).

[6] = biological target: T1, GAPDH (Rattus norvegicus, UniProt P04797); assay: GAPDH glycolytic activity in cultured cardiac cells; assay type: cell-based; settings: cardiac myocytes, 1 nM, 48 hours
T1 construct: endogenous in cells; host or cells: cultured rat neonatal cardiac cells (from Sprague-Dawley rats)
Protocol: as §4
as §2, with “control. […]” for “control.”

[7] = test system: MAO-A/B; assay: MAO activity assay in cultured myocytes; assay type: cell-based, rat; settings: concentrations between 0.1 nM and 10^5 nM
Protocol: as §2
A major challenge to identify a compound that selectively blocks the nuclear GAPDH cascade is their potential inhibition of monoamine oxidases (MAOs), which deprenyl originally harbors. Thus, it was examined whether RR inhibits MAO-A/B in cultured myocytes and a dramatic contrast was observed between RR and deprenyl. There was no inhibition of MAOs by RR in a wide range of concentrations between 0.1 nM and 10^5 nM concentrations (FIG. 4C).

[8] = test system: rat neonatal cardiac myocytes; assay: hypertrophy response of rat neonatal cardiac myocytes to ET1; assay type: cell-based; settings: ET1-treated cardiac myocytes, 1 nM
Protocol: as §1
(§5) Protein and RNA analysis: Total RNA was isolated from cells or left ventricular myocardium with Trizol (Molecular Research Center, Inc, Cincinnati, Ohio) and analyzed by real-time polymerase chain reaction (PCR) with TaqMan probes (Applied Biosystems, Foster City, Calif.). Results were normalized to GAPDH or 18S RNA. Cell lysates or nuclear extracts were obtained from cultured myocytes or ventricular tissue, resolved by SDS-polyacrylamide gel electrophoresis, subjected to immunoblotting and imaged by chemiluminescence as previously described.
as §3

[9] = test system: GAPDH-Siah1 binding / nuclear translocation of GAPDH; assay: GAPDH nuclear cascade in cardiac myocytes exposed to ET1 (co-immunoprecipitation, immunostaining, fractionation); assay type: cell-based, rat
Protocol: Physiological analysis, histological analysis: Echocardiography and pressure-volume loop studies were performed as described previously (Takimoto et al., Nat. Med., 11, 214-222 (2005)). 10% formalin fixed heart samples were embedded in paraffin, sectioned and stained for myocyte size (WGA staining) and fibrosis (Masson Trichrome staining) as described previously (Zhang et al., J. Am. Coll. Cardiol., 56, 2021-2030 (2010)). Isolated adult cardiac myocyte or rat neonatal cardiac myocyte was fixed with 50% methanol/50% acetone and stained with antibodies against GAPDH (Millipore), sulphonated GAPDH or HA as previously described.
as §1, §5
To test a role for the GAPDH-p300 signaling in heart hypertrophy, the Gq agonist ET1 was used as a trigger. ET1 is reported to elicit oxidative stress by activating NADPD oxidase and stress is known as a central contributor to cardiac hypertrophic response including pressure-load hypertrophy, as in the TAC model. Thus, cardiac myocytes were exposed to ET1 at 0.05 μM for about 48 hours and the effects on GAPDH signaling was examined. […]

[10] = 0.25 mg/kg/day i.p. from constriction, measured after 10th day (TAC10)
[11] = pressure volume loop analysis, RR versus vehicle treatment
[12] = ET1-treated cardiac myocytes, 1 nM
[13] = ET1 exposure, co-treatment with RR

GAPDH-Siah1 binding, sequence (P04406 whole entry): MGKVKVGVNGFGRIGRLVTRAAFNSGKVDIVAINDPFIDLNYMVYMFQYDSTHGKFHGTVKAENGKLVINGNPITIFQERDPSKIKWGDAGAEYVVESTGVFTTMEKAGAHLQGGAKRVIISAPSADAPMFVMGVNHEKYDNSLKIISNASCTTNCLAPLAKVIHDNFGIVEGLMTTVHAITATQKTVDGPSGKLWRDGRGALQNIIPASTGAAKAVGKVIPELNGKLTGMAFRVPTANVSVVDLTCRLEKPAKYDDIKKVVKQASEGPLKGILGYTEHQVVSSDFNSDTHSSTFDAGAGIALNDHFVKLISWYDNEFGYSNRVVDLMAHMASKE
T1 sequence (P04797 whole entry): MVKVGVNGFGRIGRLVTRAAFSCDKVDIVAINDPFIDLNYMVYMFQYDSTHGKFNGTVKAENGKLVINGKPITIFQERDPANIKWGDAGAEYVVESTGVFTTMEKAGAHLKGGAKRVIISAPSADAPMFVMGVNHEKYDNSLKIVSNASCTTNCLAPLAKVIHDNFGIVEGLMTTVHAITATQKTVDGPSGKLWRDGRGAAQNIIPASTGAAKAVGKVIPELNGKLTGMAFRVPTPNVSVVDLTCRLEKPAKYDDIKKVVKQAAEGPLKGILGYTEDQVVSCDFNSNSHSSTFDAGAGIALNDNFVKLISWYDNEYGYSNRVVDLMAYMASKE

- augmentation of p300 acylation (reflecting p300 HAT activity) [2, 12]: clearly blocked
- augmented activity of MEF2 [2, 12]: clearly blocked
- augmentation of p300 acetylation (reflecting p300 HAT activity) in the nucleus [2, 13]: blocked
- GAPDH glycolytic activity [6]: did not show any influence
- GAPDH-Siah1 binding augmented by ET1 ([9]; ET1 0.05 μM about 48 hours, co-administration of RR): normalized
- nuclear translocation of GAPDH in response to ET1 ([9]; ET1 0.05 μM, co-treatment 1 nM): blocked
- accumulation of sulphonated GAPDH in the nucleus [9, 13]: blocked
SMILES: C#CCN1[C@H](C)Cc2ccccc2[C@H]1C [RR, (1R,3R)-1,3-dimethyl-2-propargyl-1,2,3,4-tetrahydroisoquinoline]
- levels of nuclear GAPDH in TAC hearts [1, 10]: dramatically reduced
- levels of p300 HAT activity in TAC hearts [1, 10]: dramatically reduced
- cardiac hypertrophy remodeling assessed by cardiac myocyte cell size ([1]; 0.25 mg/kg/day i.p., TAC): ameliorated
- cardiac hypertrophy remodeling assessed by fibrosis ([1]; 0.25 mg/kg/day i.p., TAC): ameliorated
- cardiac hypertrophy remodeling assessed by heart weight ([1]; 0.25 mg/kg/day i.p., TAC): ameliorated
- TAC-induced left ventricular dilatation (LV-EDD) ([1]; echocardiogram): significantly inhibited
- TAC-induced reduction in Fractional Shortening (% FS) ([1]; echocardiogram): significantly inhibited
- cardiac performance despite sustained pressure-overload stress ([1]; invasive hemodynamic study, pressure volume loop analysis): improvement of cardiac performance
- pathological gene expression profile: down-regulation of calcium handling proteins ([1]; myocardial mRNA, TAC): significantly improved or normalized
- pathological gene expression profile: fetal gene re-expression (BNP, β-MHC) ([1]; myocardial mRNA, TAC): significantly improved or normalized
- diastolic relaxation properties (Tau) [1, 11]: significantly better
- systolic function (dPdtmx) [1, 11]: significantly better
- expression profile of cardiac fetal gene (BNP) ([3]; delayed treatment, RR-treated versus vehicle group): significant improvement
- cardiac myocyte size (terminal postmortem assessment) ([3]; treatment initiated 1 week after TAC, about two weeks): smaller
- further LV mass increase from sustained pressure overload ([3]; treatment initiated 1 week after TAC, about two weeks of treatment, echocardiogram): significantly blocked
- social deficit (impaired social recognition) ([4]; 0.25 mg/kg, i.p./day from postnatal day 35 through testing in adulthood): ameliorated the social deficit
- sniffing preference for stranger versus familiar mouse ([4]; DISC1 mice treated with RR (n=7), p<0.05): preferentially sniffed the stranger mouse over the familiar mouse
- GAPDH-Siah1 interaction in vitro [5]: blocked the interaction at nanomolar concentrations
- inhibition of MAOs [7]: no inhibition
- PUMA expression [8]: unchanged
- increase in B-type natriuretic peptide (BNP) expression [8]: clearly blocked
- increase in cell surface area [8]: clearly blocked
- increase in protein synthesis assayed by 3H-leucine uptake [8]: clearly blocked
